Source: article PMC11249646, “Small-Molecule Disruptors of the Interaction between Calcium- and Integrin-Binding Protein 1 and Integrin αIIbβ3 as Novel Antiplatelet Agents” (ACS Pharmacology & Translational Science, 2024)
Where two headings read alike, the source gives them in different places.

Key:
Assay type in all cases: binding
[1] = target: T1, GST-CIB1 : F-scrambled peptide (Homo sapiens, UniProt Q99828); assay: FP scrambled-peptide counter screen, 384-well format; conditions: F-scrambled peptide; for 384-well COUNTERSCREEN Confirm?: *: Curve in opposite direction; for IC50: read-out: 384-well COUNTERSCREEN IC50
T1 construct: made in house; host or cells: BL-21 plus RIL cells (E. coli)
T1 sequence (Q99828 1-191): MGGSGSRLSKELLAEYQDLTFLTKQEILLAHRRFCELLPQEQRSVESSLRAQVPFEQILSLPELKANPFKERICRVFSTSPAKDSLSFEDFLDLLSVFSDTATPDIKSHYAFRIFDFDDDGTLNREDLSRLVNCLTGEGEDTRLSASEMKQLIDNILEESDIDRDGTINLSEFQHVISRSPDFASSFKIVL

[2] = target: T2, CIB1 and αIIb interaction (CIB1-GST : F-αIIb peptide) (Homo sapiens, UniProt Q99828); assay: FP assay, 1536-well qHTS format (primary and confirmatory screen); conditions: for CONFIRMATORY SCREEN Confirm?: YES/NO call; for CONFIRMATORY SCREEN Curve Class: qHTS curve class; for CONFIRMATORY SCREEN Curve Class / Curve Class: negative sign = inhibitory curve; for CONFIRMATORY SCREEN Efficacy (%) / Efficacy (%): negative = inhibition
T2 construct: made in house; host or cells: BL-21 plus RIL cells (E. coli)
T2 sequence (Q99828 1-191): T1 sequence (Q99828 1-191)

[3] = target: T1, GST-CIB1 : F-scrambled peptide; assay: FP scrambled-peptide counter screen, 1536-well format; conditions: scrambled-peptide counterscreen; for COUNTERSCREEN Confirm?: YES/NO call; for COUNTERSCREEN Curve Class: qHTS curve class; for IC50: read-out: COUNTERSCREEN IC50
[4] = target: T3, CIB1 and αIIb interaction (GST-CIB1 : F-αIIb peptide) (Homo sapiens, UniProt Q99828); assay: FP assay, 384-well format (screen); design: 384-well SCREEN Efficacy (%): concentration or dose not given beside the values; conditions: F-αIIb peptide; for 384-well SCREEN Confirm?: YES/NO; for IC50: read-out: 384-well SCREEN IC50
T3 construct: made in house; host or cells: BL-21 plus RIL cells (E. coli)
T3 sequence (Q99828 1-191): T1 sequence (Q99828 1-191)

[5] = confirmatory screen, read-out: CONFIRMATORY SCREEN IC50
[6] = qHTS primary screen hits, Table S2
[7] = qHTS primary screen hits, Table S2, several classes where COUNT > 1
[8] = qHTS primary screen hits, Table S2, read-out: IC50
[9] = qHTS FP screen hits, Table S2, one class per curve where COUNT > 1
[10] = qHTS FP screen hits, Table S2, read-out: IC50

Structure (SMILES) | 384-well COUNTERSCREEN Efficacy (%) [1] | 384-well COUNTERSCREEN Confirm? [1] | IC50 [1] | CONFIRMATORY SCREEN Confirm? ([2]; confirmatory screen) | CONFIRMATORY SCREEN Curve Class ([2]; confirmatory screen) | CONFIRMATORY SCREEN Efficacy (%) ([2]; confirmatory screen) | IC50 [2, 5] | Efficacy (%) [2, 6] | Curve Class [2, 7] | IC50 [2, 8] | COUNTERSCREEN Efficacy (%) [3] | COUNTERSCREEN Confirm? [3] | COUNTERSCREEN Curve Class [3] | 384-well SCREEN Efficacy (%) [4] | 384-well SCREEN Confirm? [4] | IC50 [4] | Efficacy (%) ([2]; qHTS FP screen hits, Table S2) | Curve Class [2, 9] | IC50 [2, 10] | further results
CCCCCc1c2c(cc(O)c1C(=O)O)OC(=O)c1c(cc(OC)cc1C(=O)CCCC)O2.O=C(O)C(F)(F)F [NCGC00095570-05] | 58% | YES | 50.1 µM | YES | -1.2 | -60% | 11.2 µM | -33% | -1.4 | 12.6 µM | -14% | YES | 4 | 38% | YES | 8.9 µM |  |  |  | 
Cc1ccc(-c2cc(-c3nn(-c4nc(C(=O)O)cs4)c(CC4CC4)c3Cc3ccc(S(N)(=O)=O)c(F)c3)ccc2F)s1.Cl [NCGC00388587-02] | 242% |  | 50.1 µM | YES | -2.4 | -66% | 20 µM | -23% | -1.4 | 28.2 µM | 32% | YES | 4 | 84% |  | > 120 µM |  |  |  | 
CC[S+]([O-])c1nc(-c2cccc(OCc3ccccc3)c2)cc(C(F)(F)F)n1 (centres unmarked) [NCGC00379201-03] | 30% | YES* | > 120 µM | YES | -1.2 | -63% | 0.4 µM |  |  |  | 21% | YES | 4 | 70% | YES | 0.32 µM | -39% | -1.2 | 2.2 µM | 
O=C1C=CC(=O)N1c1cccc(Br)c1 [NCGC00373120-01] | 74% | YES | > 120 µM | YES | -1.2 | -38% | 8.9 µM | -54% |  | 7.1 µM | 14% | YES | 4 | 42% | YES | 10 µM |  |  |  | Curve Class [2, 6]: -1.2
Cc1cc(=O)oc2cc(SC3=NS(=O)(=O)c4ccccc43)ccc12 [NCGC00189497-01] | 34% |  | 10 µM | YES | -1.4 | -39% | 20 µM |  |  |  | 115% | YES | 3 | 52% | YES | 44.7 µM | -45% | -2.2 | 39.8 µM | IC50 [3]: 39.8 µM
CCc1oc2ccccc2c1C(=O)c1cc(I)c(O)c(I)c1 [NCGC00160408-03] | 173% |  | 10 µM | YES | -1.2 | -75% | 11.2 µM |  |  |  | 20% | YES | 1.4 | 31% |  | > 120 µM | -52% | -2.2 | 39.8 µM | IC50 [3]: 11.2 µM
CCOC(=O)c1ccc(O)c2ncc(-c3ccc(C(=N)N)cc3)cc12.O=C(O)C(F)(F)F [NCGC00241050-01] | 77% | Inconclusive |  | YES | -2.2 | -52% |  |  |  |  | -18% | YES | 4 | 87% | YES | 20 µM | -77% |  | 44.7 µM | 
N#Cc1cnc(NS(=O)(=O)c2ccc(NC(=O)Cc3ccc(F)c(Cl)c3)cc2)s1.O=C(O)C(F)(F)F [NCGC00343826-01] | 28% | YES | > 120 µM | YES | -1.4 | -50% |  | -29% | -1.2 | 2.8 µM | 24% | YES | 4 | 36% | YES | 2.2 µM |  |  |  | 
N[C@@H](Cc1ccc(Oc2cc(I)c(O)c(I)c2)c(I)c1)C(=O)O [NCGC00344545-01] | 51% |  | 3.1 µM | YES | -1.2 | -60% | 15.8 µM | -39% | -2.2 | 39.8 µM | -19% | YES | 4 | 46% | YES | 10 µM |  |  |  | 
Cc1cc(F)ccc1S(=O)(=O)Nc1cnccc1C(=O)Nc1nc(-c2ccccc2)cs1 [NCGC00345106-03] | 38% | YES | > 120 µM | YES | -2.1 | -123% | 28.2 µM |  |  |  | 28% | YES | 4 | 46% | YES | 28.2 µM | -51% | -2.2 | 50.1 µM | 
N#Cc1ccc(N2N=C3c4ccc(C(=O)O)cc4CC[C@@H]3[C@@H]2C2CCCC2)cc1Cl [NCGC00485023-01] | 40% |  |  | YES | -2.4 | -30% |  |  |  |  | 165% | YES |  | -15% |  |  | -32% | -1.2 |  | 
Cc1ccc(-c2cc(-c3nn(-c4nc(C(=O)O)cs4)c(CC4CC4)c3Cc3ccc(S(N)(=O)=O)c(F)c3)ccc2F)o1 [NCGC00389082-01] | 158% | YES | 39.8 µM | YES | -3 | -77% | 28.2 µM | -40% | -2.4 | 22.4 µM | 154% | YES |  | 60% | YES | 4.5 µM |  |  |  | IC50 [3]: 79.4 µM
COC(=O)c1ccc2c(c1)S(=O)(=O)N=C2Sc1cc(C)ccc1C [NCGC00238687-01] | 45% | YES | > 120 µM | YES | -1.2 | -59% | 28.2 µM | -49% | -2.2 | 39.8 µM | -10% | YES | 4 | 65% | YES | 11.2 µM |  |  |  | 
N#Cc1cnc(NS(=O)(=O)c2ccc(NC(=O)Cc3ccc(Cl)c(Cl)c3)cc2)s1.O=C(O)C(F)(F)F [NCGC00250147-02] | 25% | YES | > 120 µM | YES | -1.2 | -48% | 6.3 µM |  |  |  | 20% | YES | 4 | 42% | YES | 7.9 µM | -40% | -1.2 | 5.6 µM | 
